Consider 13 compounds from paper PMC12481249.

The subject of one assay is MCF-7 Br Ca cell line. As to the kind of experiment: MTT cytotoxicity (antiproliferative) assay.
The target in the next assay is T1, aromatase enzyme (Homo sapiens, UniProt P11511).
T1 construct: IC50 values against aromatase enzyme in MCF-7 Br Ca cells treated with; endogenous in cells; host or cells: MCF-7
T1 sequence (P11511 1-503): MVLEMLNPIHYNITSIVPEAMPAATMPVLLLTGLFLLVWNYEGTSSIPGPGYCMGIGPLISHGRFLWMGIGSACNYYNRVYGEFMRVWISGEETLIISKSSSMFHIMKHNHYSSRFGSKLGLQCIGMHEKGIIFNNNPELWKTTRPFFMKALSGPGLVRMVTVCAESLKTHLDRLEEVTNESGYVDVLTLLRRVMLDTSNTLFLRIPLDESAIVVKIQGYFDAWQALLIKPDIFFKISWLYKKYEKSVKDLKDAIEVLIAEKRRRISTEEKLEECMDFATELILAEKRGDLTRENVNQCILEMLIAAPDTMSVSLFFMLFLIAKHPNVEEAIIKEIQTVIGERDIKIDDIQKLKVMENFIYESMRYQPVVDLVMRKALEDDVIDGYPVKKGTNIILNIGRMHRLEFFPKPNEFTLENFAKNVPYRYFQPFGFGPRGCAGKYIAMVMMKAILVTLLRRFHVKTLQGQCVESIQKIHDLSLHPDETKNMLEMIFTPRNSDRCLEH
Kind of assay: Aromatase inhibition assay (ELISA method kit). Type of assay: biochemical. The settings on record: five concentrations.

The target in another assay is aromatase. More on the design: method as in PMID 31416738. To be noted: cited from earlier work.
The next assay relates to Bcl-2. Kind of assay: Bcl-2 level assay in MCF-7 cells. Type of assay: cell-based. The settings on record: MCF-7, qRT-PCR technique (SI: ELISA kit), IC50 concentration. The source says:
(§1) Programmed cell death, or apoptosis, is a complex series of biochemical processes.[50] Pro-apoptotic proteins include Bad, Bax, Bid and Bim, while anti-apoptotic members include Bcl-2 and Bc-LXI.[51,52] The anti-apoptotic proteins prevent cytochrome-c from release, which inhibits apoptosis, while pro-apoptotic members activate the release of cytochrome-c.[53] When there is a higher ratio of pro-apoptotic proteins than anti-apoptotic ones, the outer mitochondrial membrane becomes permeable leading to a cascade of events.[54] The cytochrome-c is released, which activates caspase 9, which in turn triggers caspase 3, which triggers apoptotic processes.[55] […] According to the data, the tested compound's Bax gen level increased noticeably compared with control. […]
(§2) Annexin V-FITC/ PI dye for 15 min in the dark at 37 °C. The samples were immediately analyzed using FACS Calibur flow cytometer (Becton and Dickinson, Heidelberg, […]
(§3) Bcl-2, Bax and Caspase 9 activities in MCF-7 Br Ca cells were detected in the presence of conjugate 5d at the IC50 concentration (µM). The levels of anti-apoptotic marker Bcl-2, apoptotic markers Bax as well as Caspase 9 were assessed using appropriate ELISA kit. […]
(§4) with IC50 concentration of compound 5d. […] The samples were measured at 450 nm in ROBONEK P2000 ELISA reader. […]
(Quantitative PCR measures a nucleic acid by following its amplification.)

A further assay concerns caspase 9. As to the kind of experiment: Caspase 9 level assay in MCF-7 cells. In kind it is cell-based. The settings on record: MCF-7, qRT-PCR technique (SI: ELISA kit), IC50 concentration.
Text: An essential initiator caspase in the intrinsic apoptotic process is caspase 9.[56] It is essential for inducing cell death in response to internal stress such as oxidative stress, DNA damage, or oncogene activation conditions, which are frequently present in cancer cells.[57] Therefore, therapeutic strategies that enhance or restore its activity can potentially overcome apoptosis resistance in tumors.[58] In this context, naphthalene-1-yloxyacetamide tethered acrylamide conjugate 5d were evaluated as caspase 9 activator against MCF-7 cells using qRT-PCR technique. […] It is worth mentioning that, the level of caspase 9 protein level is increased 8.2-fold more than the negative control.
Apoptosis in MCF-7 cells was investigated using fluorescent Annexin V-FITC/ PI detection kit (BioVision Annexin V-FITC Apoptosis Detection Kit, Catalog #: K101) by […]
as §2
6. […]
as §3, §4

In another assay the test system is Bax. Kind of assay: Bax level assay in MCF-7 cells. To be noted: MCF-7, qRT-PCR technique (SI: ELISA kit), IC50 concentration. In kind it is cell-based.
Text: as §1, §2, §3, §4

Assay [1] has as its system MCF-7 Br Ca cells. As to the kind of experiment: DNA flow cytometry cell cycle analysis. In kind it is cell-based. The settings on record: MCF-7, at the IC50 value for 48 h. The text has this: It is frequently utilized in cell biology to comprehend growth regulation, cell proliferation and the impact of both drugs and genetic alterations on cellular division.[44] Recognizing and manipulating the phase at which cell cycle arrest occurs can improve the therapeutic efficacy and selectivity of chemotherapeutic drugs, as many cancer therapies target rapidly proliferating cells.[45] The most cytotoxic naphthalen-1-yloxyacetamide-tethered acrylamide conjugate, 5d, was chosen in order to further assess its impact on the advancement on cell cycle in MCF-7 Br Ca cells. […] There was also a control experiment that receives no treatment. According to Flow cytometric study, naphthalen-1-yloxyacetamide-tethered acrylamide conjugate 5d treatment causes a G1 stoppage that is almost 1.4-times greater than that of the control (Fig. 4).
S4.2.3. Cell cycle analysis of compound 5d
Cell cycle analysis in MCF-7 cells was investigated using fluorescent Annexin V-FITC/ PI detection kit (BioVision EZCellTM Cell Cycle Analysis Kit Catalog #K920) by flow […]
washed twice in PBS. After that, the cells were incubated at 37 °C and 5% CO2. The […]
twice in PBS, fixed with 70% ethanol, rinsed again with PBS. Afterward, medium was stained with DNA fluorochrome PI for 15 min at 37 °C. The samples were immediately analyzed using Facs Calibur flow cytometer (Becton and Dickinson, Heidelberg, […]
S4.2.4. […]
Background: A flow cytometer gives signals particle by particle.

In assay [2] the test system is MCF-7 Br Ca cells. Kind of assay: FITC-Annexin V/PI apoptosis assay. The settings on record: MCF-7, 48 h. Type of assay: cell-based.
[3] abbreviates: Homo sapiens, MCF7, read-out: IC50 MCF-7, MTT, MCF-7 Br Ca cell line, mean ± SD (n = 3).

A word on the IC50: it is the midpoint of a concentration-inhibition curve.

Where two headings read alike, the source gives them in different places.

Experimental for MCF-7 Br Ca cell line: Cytotoxic activity evaluation
To measure the cytotoxic actvity of the synthesized naphthalen-1-yloxyacetamide
tethered acrlamide derivatives 5a-j and 6a,b in breast adenocarcinoma (MCF-7) cell line
(ATCC Cat. No. HTB-22). Cell viability assay was assessed using MTT assay method.
Cells at density of 1 x 104 were seeded in a 96-well plate at 37 °C for 24 h under 5%
CO2. After incubation, the cells were treated with different concentrations of the
investigated naphthalen-1-yloxyacetamide tethered acrlamide derivatives 5a-j and 6a,b
and incubated for 24 h, then 20 l of MTT solution at 5 mg/mL was applied and
incubated for 4 h at 37 °C. Dimethyl sulphoxide (DMSO) in volume of 100 µl was
added to each well to dissolve the purple formazan that had formed. The color intensity
of the formazan product, which represents the growth condition of the cells, is quantified
by using an ELISA plate reader (EXL 800, USA) at 570 nm absorbance. The experimental conditions were carried out with at least three replicates, and the experiments were repeated at least three times.

Regarding `O=C(COc1cccc2ccccc12)NNC(=O)/C(=C/c1ccco1)NC(=O)c1ccccc1` [6a, (Z)-N-(1-(Furan-2-yl)-3-(2-(2-(naphthalen-1-yloxy)acetyl)hydrazineyl)-3-oxoprop-1-en-2-yl)benzamide], in the assay on MCF-7 Br Ca cell line (setting [3]), the 50% inhibitory concentration (IC50) stood at 9.18 ± 0.66 µM.
Same read-out and setting: the value for `COc1ccc(/C=C(\NC(=O)c2ccccc2)C(=O)NNC(=O)COc2cccc3ccccc23)cc1OC` [5f, (Z)-N-(1-(3,4-Dimethoxyphenyl)-3-(2-(2-(naphthalen-1-yloxy)acetyl)hydrazineyl)-3-oxoprop-1-en-2-yl)benzamide] was 28.7 ± 1.45 µM; that for `COc1ccc(C(=O)N/C(=C\c2ccco2)C(=O)NNC(=O)COc2cccc3ccccc23)cc1` [6b, (Z)-N-(1-(Furan-2-yl)-3-(2-(2-(naphthalen-1-yloxy)acetyl)hydrazineyl)-3-oxoprop-1-en-2-yl)-4-methoxybenzamide] was 11.5 ± 0.76 µM.
Consider `O=C(COc1cccc2ccccc12)NNC(=O)/C(=C/c1ccc([N+](=O)[O-])cc1)NC(=O)c1ccccc1` [5c, (Z)-N-(3-(2-(2-(Naphthalen-1-yloxy)acetyl)hydrazineyl)-1-(4-nitrophenyl)-3-oxoprop-1-en-2-yl)benzamide], for which the IC50 against aromatase enzyme stood at 0.143 µM.
As to `O=C(COc1cccc2ccccc12)NNC(=O)/C(=C/c1cc(Br)c(O)c(Br)c1)NC(=O)c1ccccc1` [5g, (Z)-N-(1-(3,5-Dibromo-4-hydroxyphenyl)-3-(2-(2-(naphthalen-1-yloxy)acetyl)hydrazineyl)-3-oxoprop-1-en-2-yl)benzamide], the IC50 with MCF-7 Br Ca cell line (setting [3]) is 18.5 ± 1.26 µM.
`CN(C)c1ccc(/C=C(\NC(=O)c2ccccc2)C(=O)NNC(=O)COc2cccc3ccccc23)cc1` [5e, (Z)-N-(1-(4-(Dimethylamino)phenyl)-3-(2-(2-(naphthalen-1-yloxy)acetyl)hydrazineyl)-3-oxoprop-1-en-2-yl)benzamide]: the IC50 at aromatase enzyme turned out to be 0.093 µM.
Take `COc1cc(/C=C(\NC(=O)c2ccccc2)C(=O)NNC(=O)COc2cccc3ccccc23)cc(OC)c1OC` [5i, (Z)-N-(3-(2-(2-(Naphthalen-1-yloxy)acetyl)hydrazineyl)-3-oxo-1-(3,4,5-trimethoxyphenyl)prop-1-en-2-yl)benzamide]: the IC50 in the assay with MCF-7 Br Ca cell line (setting [3]) is 16.9 ± 0.82 µM.
Same read-out and setting: the value for `O=C(COc1cccc2ccccc12)NNC(=O)/C(=C/c1ccc(Br)cc1)NC(=O)c1ccccc1` [5b, (Z)-N-(1-(4-Bromophenyl)-3-(2-(2-(naphthalen-1-yloxy)acetyl)hydrazineyl)-3-oxoprop-1-en-2-yl)benzamide] was 30.7 ± 1.18 µM; that for `COc1ccc(/C=C(\NC(=O)c2ccccc2)C(=O)NNC(=O)COc2cccc3ccccc23)c(OC)c1OC` [5h, (Z)-N-(3-(2-(2-(Naphthalen-1-yloxy)acetyl)hydrazineyl)-3-oxo-1-(2,3,4-trimethoxyphenyl)prop-1-en-2-yl)benzamide] was 25.9 ± 1.41 µM; that for `COc1ccc(C(=O)N/C(=C\c2cc(OC)c(OC)c(OC)c2)C(=O)NNC(=O)COc2cccc3ccccc23)cc1` [5j, (Z)-4-Methoxy-N-(3-(2-(2-(naphthalen-1-yloxy)acetyl)hydrazineyl)-3-oxo-1-(3,4,5-trimethoxyphenyl)prop-1-en-2-yl)benzamide] was 21.2 ± 0.92 µM.
For `O=S(=O)(NCc1cccc(CNS(=O)(=O)c2ccc3ccccc3c2)c1)c1ccc2ccccc2c1` [IV], on aromatase, the IC50 was 0.21 µM.
Turning to `O=C(COc1cccc2ccccc12)NNC(=O)/C(=C/c1ccc(Cl)cc1)NC(=O)c1ccccc1` [5a, (Z)-N-(1-(4-Chlorophenyl)-3-(2-(2-(naphthalen-1-yloxy)acetyl)hydrazineyl)-3-oxoprop-1-en-2-yl)benzamide], the IC50 with MCF-7 Br Ca cell line (setting [3]) is 51.8 ± 1.51 µM.
As for `COc1ccc(/C=C(\NC(=O)c2ccccc2)C(=O)NNC(=O)COc2cccc3ccccc23)cc1` [5d, (Z)-N-(1-(4-methoxyphenyl)-3-(2-(2-(naphthalen-1-yloxy)acetyl)hydrazineyl)-3-oxoprop-1-en-2-yl)benzamide], the “Bcl-2 gene level factor vs negative control” value with Bcl-2 stood at 0.3. Also, in the assay with caspase 9, the “caspase 9 level fold vs negative control” value was 8.2 fold. The IC50 against aromatase enzyme is 0.078 µM; in the assay with MCF-7 Br Ca cell line (setting [3]), 3.03 µM; in the assay on MCF-7 Br Ca cell line (read-out: IC50 MCF-7, MTT, MCF-7 Br Ca cell line, mean ± SD (n = 3)) it was 2.33 ± 0.1 µM. Also, in the assay with Bax, the “Bax level fold vs untreated MCF-7 cells” value amounted to 4.0 fold. Besides, the “G1 stoppage relative to control” value with MCF-7 Br Ca cells [1] is about 1.4 times. Also, the “early apoptosis fold increase vs control” value in the assay on MCF-7 Br Ca cells [2] was determined as 33.6 fold. Also, the “late apoptosis fold increase vs control” value with MCF-7 Br Ca cells [2] was 42.0 fold. Besides, the “late apoptotic cells percentage” value with MCF-7 Br Ca cells [2] (IC50 concentration, control untreated 0.14%) was 5.88%. Besides, the early apoptosis percentage with MCF-7 Br Ca cells [2] (IC50 concentration, no treatment control 0.57%) stood at 19.17%.
